Experimental findings from ChEMBL document CHEMBL1127824, “6,6-Disubstituted Hex-5-enoic acid derivatives as combined thromboxane A2 receptor antagonists and synthetase inhibitors” (J Med Chem, 1994) are described below.

The target of one test is T1, Thromboxane-A synthase (Homo sapiens, UniProt P24557).
T1 sequence (P24557 whole entry): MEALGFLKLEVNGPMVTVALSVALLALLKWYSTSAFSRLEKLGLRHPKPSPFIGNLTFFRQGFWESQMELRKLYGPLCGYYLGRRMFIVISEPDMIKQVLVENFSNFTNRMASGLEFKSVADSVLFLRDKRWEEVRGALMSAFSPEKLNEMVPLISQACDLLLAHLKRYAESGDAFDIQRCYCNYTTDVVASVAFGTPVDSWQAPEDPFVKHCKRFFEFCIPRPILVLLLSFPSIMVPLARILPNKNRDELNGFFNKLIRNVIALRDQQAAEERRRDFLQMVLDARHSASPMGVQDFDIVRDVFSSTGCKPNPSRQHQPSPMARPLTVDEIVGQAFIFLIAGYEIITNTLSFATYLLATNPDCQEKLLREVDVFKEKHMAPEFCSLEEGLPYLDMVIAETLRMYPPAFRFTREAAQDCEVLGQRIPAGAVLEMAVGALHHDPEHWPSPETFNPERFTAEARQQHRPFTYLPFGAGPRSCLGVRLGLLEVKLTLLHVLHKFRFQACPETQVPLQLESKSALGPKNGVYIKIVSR

The species entered for the next test is Homo sapiens. Description: tissue or blood. To be noted: Plasma. In kind it is functional, organism-based.
The target in a further test is T2, Thromboxane A2 receptor (Homo sapiens, UniProt P21731).
T2 sequence (P21731 whole entry): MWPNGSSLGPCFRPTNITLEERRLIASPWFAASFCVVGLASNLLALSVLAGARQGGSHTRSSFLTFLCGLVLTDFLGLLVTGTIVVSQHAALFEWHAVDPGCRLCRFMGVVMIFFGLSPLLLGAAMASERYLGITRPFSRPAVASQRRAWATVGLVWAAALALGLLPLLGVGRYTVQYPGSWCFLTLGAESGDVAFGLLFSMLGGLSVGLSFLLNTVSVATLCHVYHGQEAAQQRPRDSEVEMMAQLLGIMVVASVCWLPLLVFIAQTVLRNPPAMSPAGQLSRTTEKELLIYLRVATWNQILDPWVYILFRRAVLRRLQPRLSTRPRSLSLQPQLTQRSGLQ

Several values for one entry are separate records, joined by “and”; a condition that tells them apart may be missing. Equal entries are not always repeated.

Description for Homo sapiens: Inhibition of collagen-induced platelet aggregation in human platelet-rich plasma.
Description for Thromboxane-A synthase: Inhibition test of thromboxane A2 synthetase in human gel-filtered platelets.

A word on the IC50: it is the point on the concentration scale where inhibition reaches its midpoint. Low values mean greater potency, high ones weaker potency. For orientation: EC50 means the concentration giving half of the maximal effect. Take `CN(CCc1ccc(/C(=C\CCCC(=O)O)c2cccnc2)cc1)S(=O)(=O)c1ccc(Cl)cc1`: the IC50 against Thromboxane-A synthase amounted to 15 nM; at Thromboxane A2 receptor, 25 nM. The EC50 in the test filed under Homo sapiens is 24 µM.
As to `O=C(O)CCC/C=C(\c1ccc(CCNS(=O)(=O)c2ccc(F)cc2)cc1)c1cccnc1`, the 50% inhibitory concentration (IC50) stood at 4 nM against Thromboxane-A synthase and 66 nM against Thromboxane A2 receptor. Further, the EC50 in the test listed under Homo sapiens was found to be 3.1 µM.
Consider `CC(C)N(CCc1ccc(/C(=C\CCCC(=O)O)c2cccnc2)cc1)S(=O)(=O)c1ccc(Cl)cc1`, for which the IC50 was determined as 25 nM on Thromboxane-A synthase and 51 nM at Thromboxane A2 receptor. The same molecule registered a 50% effective concentration (EC50) in the test listed under Homo sapiens of over 100 µM.
For `COc1ccc(S(=O)(=O)NCCc2ccc(/C(=C\CCCC(=O)O)c3cccnc3)cc2)cc1`, in that order: 5 nM, 52 nM and 10 µM.
Consider `CCN(CCc1ccc(/C(=C\CCCC(=O)O)c2cccnc2)cc1)S(=O)(=O)c1ccc(Cl)cc1`, for which the concentration for half-maximal inhibition (IC50) against Thromboxane-A synthase came to 4 nM; on Thromboxane A2 receptor, 33 nM. The EC50 in the test listed under Homo sapiens was determined as 13 µM.
`O=C(O)c1cccc(/C=C(\c2ccc(CCNS(=O)(=O)c3ccc(Cl)cc3)cc2)c2cccnc2)c1`: the IC50 on Thromboxane-A synthase was determined as 4 nM; against Thromboxane A2 receptor, 100 nM. Besides, in the test filed under Homo sapiens, the EC50 was determined as 30 µM.
Regarding `CNC(=O)CCC/C=C(\c1ccc(CCNS(=O)(=O)c2ccc(Cl)cc2)cc1)c1cccnc1`, the values for the half-inhibitory concentration (IC50) at Thromboxane-A synthase and at Thromboxane A2 receptor were 250 nM and 170 nM, respectively. Besides, in the test listed under Homo sapiens, the EC50 was 24 µM.
For the molecule `O=C(O)CCCCO/N=C(/c1cccnc1)c1cccc(C(F)(F)F)c1` [RIDOGREL], the half-inhibitory concentration (IC50) on Thromboxane-A synthase is 4 nM and 8 nM; at Thromboxane A2 receptor it was 1700 nM and 5200 nM. The molecule further came in with an EC50 in the test filed under Homo sapiens of 16 µM.
`O=C(O)CCC/C=C(\c1ccc(CCNS(=O)(=O)c2ccccc2)cc1)c1cccnc1`: the values for the half-inhibitory concentration (IC50) at Thromboxane-A synthase and against Thromboxane A2 receptor were 5 nM and 81 nM, respectively. For the same molecule, in the test filed under Homo sapiens, the 50% effective concentration (EC50) came to 3.4 µM.
Regarding `O=C(O)CCC/C=C(/c1ccc(CCNS(=O)(=O)c2ccc(Cl)cc2)cc1)c1cccnc1`, the IC50 on Thromboxane-A synthase is 490 nM; at Thromboxane A2 receptor it was 380 nM. This molecule also registered a 50% effective concentration (EC50) in the test filed under Homo sapiens of 43 µM.
For `O=C(O)c1ccc(/C=C(\c2ccc(CCNS(=O)(=O)c3ccc(Cl)cc3)cc2)c2cccnc2)cc1`, in that order: 27 nM, 130 nM and 52 µM.
For `O=C(O)CCO/N=C(\c1ccc(CCNS(=O)(=O)c2ccc(Cl)cc2)cc1)c1cccnc1`, in that order: 60 nM, 26 nM and 4.3 µM.
With `CCCCS(=O)(=O)NCCc1ccc(/C(=C\CCCC(=O)O)c2cccnc2)cc1`, the results for the half-maximal inhibitory concentration (IC50) at Thromboxane-A synthase and against Thromboxane A2 receptor were 5 nM and 1100 nM, respectively. Also, the EC50 in the test listed under Homo sapiens stood at 3.4 µM.
For the molecule `O=C(O)CCCC/C=C(\c1ccc(CCNS(=O)(=O)c2ccc(Cl)cc2)cc1)c1cccnc1`, the 50% inhibitory concentration (IC50) against Thromboxane-A synthase was determined as 24 nM; on Thromboxane A2 receptor, 19 nM. This molecule registered a concentration for a half-maximal effect (EC50) in the test filed under Homo sapiens of 1.5 µM.
As for `O=C(O)CCC/C=C(\c1ccc(CCNC(=O)c2ccc(Cl)cc2)cc1)c1cccnc1`, the half-maximal inhibitory concentration (IC50) came to 43 nM against Thromboxane-A synthase and 210 nM against Thromboxane A2 receptor. The molecule further gave a concentration for a half-maximal effect (EC50) in the test filed under Homo sapiens of 55 µM.
On to `O=C(O)CCCCCC(c1ccc(CCNS(=O)(=O)c2ccc(Cl)cc2)cc1)c1cccnc1` (centres undefined), for which the figures for the IC50 against Thromboxane-A synthase and against Thromboxane A2 receptor were 31 nM and 210 nM, respectively. In the test listed under Homo sapiens, this molecule came in with a 50% effective concentration (EC50) of 1.2 µM.
For `Cc1ccc(S(=O)(=O)NCCc2ccc(/C(=C\C(=O)NCC(=O)O)c3cccnc3)cc2)cc1`, in that order: 15000 nM, 3000 nM and over 100 µM.
As for `O=C(O)CCC/C=C(/c1cccnc1)c1cccc(NS(=O)(=O)c2ccc(Cl)cc2)c1`, the results for the concentration for half-maximal inhibition (IC50) on Thromboxane-A synthase and at Thromboxane A2 receptor were 7 nM and 60 nM, respectively. Moreover, the midpoint of the response in the test filed under Homo sapiens, the EC50, lay at 40 µM.
Regarding `O=C(O)CCCCC(c1ccc(CCNS(=O)(=O)c2ccc(Cl)cc2)cc1)c1cccnc1` (centres undefined), the IC50 is 2 nM on Thromboxane-A synthase and 84 nM on Thromboxane A2 receptor. The half-maximal effective concentration (EC50) in the test listed under Homo sapiens was 1.2 µM.
Regarding `COC(=O)CCC/C=C(\c1ccc(CCNS(=O)(=O)c2ccc(Cl)cc2)cc1)c1cccnc1`, the 50% inhibitory concentration (IC50) was 33 nM against Thromboxane-A synthase and 36 nM at Thromboxane A2 receptor. In the test filed under Homo sapiens, this molecule registered an EC50 of 11 µM.
Consider `Cc1ccc(S(=O)(=O)NCCc2ccc(/C(=C\CCCC(=O)O)c3cccnc3)cc2)cc1`, for which the IC50 at Thromboxane-A synthase is 5 nM; on Thromboxane A2 receptor, 33 nM. In the test filed under Homo sapiens, this molecule registered an EC50 of 0.7 µM.
For `O=C(O)CCCC(c1ccc(CCNS(=O)(=O)c2ccc(Cl)cc2)cc1)c1cccnc1` (centres undefined), in that order: 98 nM, 74 nM and 12 µM.
For `O=C(O)CCC/C=C(/c1cccnc1)c1ccc2c(c1)CCC(NS(=O)(=O)c1ccc(Cl)cc1)C2` (centres undefined), in that order: 8 nM, 13 nM and 5 µM.
On to `O=C(O)CCC/C=C(/c1cccnc1)c1cccc(CCNS(=O)(=O)c2ccc(Cl)cc2)c1`, for which the figures for the IC50 against Thromboxane-A synthase and at Thromboxane A2 receptor were 4 nM and 12 nM, respectively. The molecule further displayed an EC50 in the test filed under Homo sapiens of 1.7 µM.
For the molecule `O=C(O)CCC/C=C(\c1ccc(CCN(CCN2CCOCC2)S(=O)(=O)c2ccc(Cl)cc2)cc1)c1cccnc1`, the half-maximal inhibitory concentration (IC50) is 4 nM on Thromboxane-A synthase and 58 nM against Thromboxane A2 receptor. The midpoint of the response in the test listed under Homo sapiens, the EC50, lay at 21 µM.
With `O=C(O)C/C=C(\c1ccc(CCNS(=O)(=O)c2ccc(Cl)cc2)cc1)c1cccnc1`, the 50% inhibitory concentration (IC50) on Thromboxane-A synthase is 1000 nM; against Thromboxane A2 receptor, 12 nM. Besides, the concentration giving a half-maximal response (EC50) in the test listed under Homo sapiens was 37 µM.
`COc1ccc(S(=O)(=O)NCCc2ccc(/C(=C\CCCC(=O)O)c3cccnc3)cc2)cc1OC`: the results for the IC50 against Thromboxane-A synthase and at Thromboxane A2 receptor were 5 nM and 340 nM, respectively. It took 16 µM to reach a half-maximal effect in the test listed under Homo sapiens (EC50).
Turning to `O=C(O)CCC/C=C(\c1ccc(CCN(CCC(=O)O)S(=O)(=O)c2ccc(Cl)cc2)cc1)c1cccnc1`, the IC50 turned out to be 100 nM against Thromboxane-A synthase and 120 nM at Thromboxane A2 receptor. Further, the concentration for a half-maximal effect (EC50) in the test filed under Homo sapiens was over 100 µM.
For `O=C(O)CCC/C=C(\c1ccc(CCN(CC(=O)O)S(=O)(=O)c2ccc(Cl)cc2)cc1)c1cccnc1`, in that order: 310 nM, 61 nM and 44 µM.
As to `Cn1c(CCNS(=O)(=O)c2ccc(F)cc2)ccc1/C(=C\CCCC(=O)O)c1cccnc1`, the results for the 50% inhibitory concentration (IC50) against Thromboxane-A synthase and against Thromboxane A2 receptor were 4 nM and 230 nM, respectively. In the test listed under Homo sapiens, it took 1.1 µM to reach a half-maximal effect (EC50).
For `NC(=O)CN(CCc1ccc(/C(=C\CCCC(=O)O)c2cccnc2)cc1)S(=O)(=O)c1ccc(Cl)cc1`, the half-inhibitory concentration (IC50) against Thromboxane-A synthase is 5 nM; against Thromboxane A2 receptor it was 49 nM. In the test filed under Homo sapiens, this molecule displayed an EC50 of 9.2 µM.
For `O=C(O)CC/C=C(\c1ccc(CCNS(=O)(=O)c2ccc(Cl)cc2)cc1)c1cccnc1`, in that order: 21 nM, 42 nM and 36 µM.
For `O=C(O)CCC/C=C(/c1cccnc1)c1ccc2c(c1)CC(NS(=O)(=O)c1ccc(F)cc1)C2` (centres undefined), the IC50 was 1 nM on Thromboxane-A synthase and 9 nM at Thromboxane A2 receptor. In addition, the midpoint of the response in the test listed under Homo sapiens, the EC50, lay at 0.56 µM.
For `NC(=O)CCC/C=C(\c1ccc(CCNS(=O)(=O)c2ccc(Cl)cc2)cc1)c1cccnc1`, in that order: 39 nM, 94 nM and 28 µM.
As for `O=C(O)CCC/C=C(\c1ccc(CCN(Cc2ccc(C(=O)O)cc2)S(=O)(=O)c2ccc(Cl)cc2)cc1)c1cccnc1`, the values for the 50% inhibitory concentration (IC50) on Thromboxane-A synthase and against Thromboxane A2 receptor were 46 nM and 28 nM, respectively. The molecule also yielded an EC50 in the test listed under Homo sapiens of over 100 µM.
Take `O=C(O)CCC(CCCCNS(=O)(=O)c1ccc(Cl)cc1)CCCc1cccnc1` (centres undefined): the half-maximal inhibitory concentration (IC50) was 6 nM and 4 nM against Thromboxane-A synthase; 6 nM on Thromboxane A2 receptor. For the same molecule, in the test listed under Homo sapiens, the response was half-maximal at 5.8 µM (EC50).
With `O=C(O)CCC/C=C(\c1ccc(CCNS(=O)(=O)c2ccc(C(F)(F)F)cc2)cc1)c1cccnc1`, the results for the half-maximal inhibitory concentration (IC50) against Thromboxane-A synthase and on Thromboxane A2 receptor were 6 nM and 28 nM, respectively. The molecule also came in with a half-maximal effective concentration (EC50) in the test filed under Homo sapiens of 2.8 µM.
Regarding `Cc1cc(C)c(S(=O)(=O)NCCc2ccc(/C(=C\CCCC(=O)O)c3cccnc3)cc2)c(C)c1`, the results for the half-inhibitory concentration (IC50) on Thromboxane-A synthase and against Thromboxane A2 receptor were 19 nM and 42 nM, respectively. In addition, the half-maximal effective concentration (EC50) in the test filed under Homo sapiens was 30 µM.
For `O=C(O)CCC/C=C(\c1ccc(CCNC(=O)Cc2ccccc2)cc1)c1cccnc1`, in that order: 21 nM, 1200 nM and 9.5 µM.
For `O=S(=O)(NCCc1ccc(/C(=C\CCCc2nnn[nH]2)c2cccnc2)cc1)c1ccc(Cl)cc1`, in that order: 21 nM, 12 nM and 9.5 µM.
As for `O=C(O)CCC/C=C(\c1ccc(CCNS(=O)(=O)c2ccc(Cl)cc2)cc1)c1ccc[n+]([O-])c1`, the values for the IC50 at Thromboxane-A synthase and against Thromboxane A2 receptor were 45000 nM and 1100 nM, respectively. The EC50 in the test listed under Homo sapiens was over 100 µM.
Turning to `O=C(O)CCC/C=C(\c1ccc(CNS(=O)(=O)c2ccc(Cl)cc2)cc1)c1cccnc1`, the IC50 against Thromboxane-A synthase was found to be 7 nM; against Thromboxane A2 receptor it was 55 nM. In the test filed under Homo sapiens, this molecule had an EC50 of 5 µM.
For `CN(C)C(=O)CCC/C=C(\c1ccc(CCNS(=O)(=O)c2ccc(Cl)cc2)cc1)c1cccnc1`, in that order: 44 nM, 300 nM and 40 µM.
